Results: patent US9458104B2 (priority 2012, dated 2016)

Experiments:
[1] = target: T1, RORγ ligand binding domain (LBD) (Homo sapiens, UniProt P51449); test: TR-FRET Activity Assay (ligand sensing assay, RORγ-LBD / coactivator peptide interaction); type: biochemical
T1 construct: made in house; host or cells: E. coli BL-21 (BL3), vector pDEST15
T1 sequence (P51449 269-508 limits assumed): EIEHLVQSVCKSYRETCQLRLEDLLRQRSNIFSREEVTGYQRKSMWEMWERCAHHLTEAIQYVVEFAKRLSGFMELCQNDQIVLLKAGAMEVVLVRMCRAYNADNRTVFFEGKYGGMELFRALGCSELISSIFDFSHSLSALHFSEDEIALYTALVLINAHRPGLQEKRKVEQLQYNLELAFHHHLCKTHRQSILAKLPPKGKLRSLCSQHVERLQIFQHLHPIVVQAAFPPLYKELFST
Text: This method measures the ability of putative ligands to modulate the interaction between the purified bacterial expressed RORγ ligand binding domain (LBD) and synthetic N-terminally biotinylated peptides which are derived from nuclear receptor coactivator proteins such as but not limited to SRC1 (NcoA1), SRC2 (NcoA2, TIF2), SRC3 (NcoA3), PGC1α, PGC1β, CBP, GRIP1, TRAP220, RIP140.
The ligand-binding domain (LBD) of RORγ was expressed as fusion protein with GST in […] cells using the vector pDEST15. Cells were lysed by lysozyme-treatment and sonication, and the fusion proteins purified over glutathione sepharose (Pharmacia) according to the manufacturers instructions. For screening of compounds for their influence on the RORγ-peptide interaction, the LANCE technology (Perkin Elmer) was applied. This method relies on the binding dependent energy transfer from a donor to an acceptor fluorophor attached to the binding partner of interest. For ease of handling and reduction of background from compound fluorescence LANCE technology makes use of generic fluorophore labels and time resolved detection assays were done in a final volume of 25 μL in a 384 well plate, in a Tris-based buffer system (20 mM Tris-HCl pH6.8; 60 mM KCl, 1 mM DTT; 5 mM MgCl2; 35 ng/μL BSA), containing 20-60 ng/well recombinantly expressed RORγ-LBD fused to GST, 200-600 nM N-terminally biotinylated peptide, 200 ng/well Streptavidin-xIAPC conjugate (Prozyme) and 6-10 ng/well Eu W1024-antiGST (Perkin Elmer). DMSO content of the samples was kept at 1%.
After generation of the Tris-based buffer system, the potentially RORγ modulating ligands were diluted. […] The LANCE signal was detected by a Perkin Elmer EnVision™ Multilabel Counter. The results were visualized by plotting the ratio between the emitted light at 665 nm and 615 nm. […] Ligands that promote the complex formation induce a concentration-dependent increase in time-resolved fluorescent signal.
To assess the antagonistic potential of the compounds, IC50 values were determined using a Ligand Sensing Assay based on Time-resolved Fluorescence Energy Transfer (TR-FRET) as described above. The normalised TR-FRET assay values, using the following equation: 1000*665 nm measurement value/615 nm measurement value, were transferred to the program GraphPad Prism to generate graphs and dose response curves using the following equation: […]
This is identical to the “four parameter logistic equation”. The IC50 values are calculated using this equation. […] Is is understood that the data illustrated below may have reasonable variation depending on the specific conditions and procedures used by the person conducting the test.

RORγ = target: T2, RORγ (UniProt P51449); type: cell-based; conditions: 293T cells, 16 h; for pIC50 (FF): firefly (FF) luciferase; for pIC50 (REN): renilla normalised (RENnorm) luciferase
T2 construct: hRORg-LBD|aa259-518|NP_005051.2; hRORgt|aa1-497|NP_001001523 (RORg, t isoform, 497aa); mRORg-LBD|aa264-516|NP_035411
T2 sequence (P51449 1-518): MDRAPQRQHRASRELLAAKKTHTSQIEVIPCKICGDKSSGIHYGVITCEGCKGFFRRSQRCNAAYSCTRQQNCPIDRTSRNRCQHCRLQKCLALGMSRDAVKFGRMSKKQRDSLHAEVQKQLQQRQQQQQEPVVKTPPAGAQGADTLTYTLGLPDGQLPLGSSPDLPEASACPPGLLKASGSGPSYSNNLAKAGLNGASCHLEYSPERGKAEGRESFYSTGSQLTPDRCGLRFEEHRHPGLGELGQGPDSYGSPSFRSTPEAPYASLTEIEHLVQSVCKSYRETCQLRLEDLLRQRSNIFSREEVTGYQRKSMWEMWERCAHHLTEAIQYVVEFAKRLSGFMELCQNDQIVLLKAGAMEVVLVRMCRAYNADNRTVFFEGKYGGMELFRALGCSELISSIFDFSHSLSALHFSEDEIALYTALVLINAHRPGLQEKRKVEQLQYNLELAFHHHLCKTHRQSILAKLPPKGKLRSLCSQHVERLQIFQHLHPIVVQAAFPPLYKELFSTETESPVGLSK

Row | Structure (SMILES) | IC50 [1] [nM] | pIC50 (FF) (RORγ) | pIC50 (REN) (RORγ)
1 | CC(C)(C)NS(=O)(=O)c1ccc(-c2c(F)c(C(=O)NCCC(C)(C)C(=O)O)nn2CC2CCCCC2)cc1C(F)(F)F [Example 109, 4-(5-(4-(N-(tert-Butyl)sulfamoyl)-3-(trifluoromethyl)phenyl)-1-(cyclohexylmethyl)-4-fluoro-1H-pyrazole-3-carboxamido)-2,2-dimethylbutanoic acid] | 501 | 6.7 | 6.8
2 | Cc1c(C(=O)NC2CCOCC2)cc(-c2ccc(S(=O)(=O)NC(C)(C)C)c(C(F)(F)F)c2)n1CC1COC1 [302/3] | 15800 | 6.3 | 6.2
3 | COC(c1c(C)c(C(=O)NC2CCOCC2)cn1-c1cc(C(C)(C)C)cc(C2(C)CC2)c1)C1CCCCC1 (centres unmarked) [Example 14, 1-(3-(tert-Butyl)-5-(1-methylcyclopropyl)phenyl)-5-(cyclohexyl(methoxy)methyl)-4-methyl-N-(tetrahydro-2H-pyran-4-yl)-1H-pyrrole-3-carboxamide] | 2000 | 6.1 | 6.3
4 | C=CCCC(=O)c1cc(-c2cc(C(C)(C)C)cc(C(C)(C)C)c2)n(CC2CCCCC2)c1C [Example 322, 1-(1-(Cyclohexylmethyl)-5-(3,5-di-tert-butylphenyl)-2-methyl-1H-pyrrol-3-yl)pent-4-en-1-one] | 1580 | < 4.7 | < 4.7
5 | Cn1c(CC2CCCCC2)c(-c2cc(C(C)(C)C)cc(C3(C)CC3)c2)c(Cl)c1C(=O)N[C@H]1C[C@H](C(=O)O)C1 [Example 20, trans-3-(4-(3-(tert-Butyl)-5-(1-methylcyclopropyl)phenyl)-3-chloro-5-(cyclohexylmethyl)-1-methyl-1H-pyrrole-2-carboxamido)cyclobutanecarboxylic acid] | 3980 | 7.2 | 7.3
6 | Cn1c(C(=O)N[C@H]2C[C@H](C(=O)O)C2)cc(-c2cc(C(C)(C)C)cc(C3(C)CC3)c2)c1C(=O)C1CCCCC1 [Example 26, trans-3-(4-(3-(tert-Butyl)-5-(1-methylcyclopropyl)phenyl)-5-(cyclohexanecarbonyl)-1-methyl-1H-pyrrole-2-carboxamido)cyclobutanecarboxylic acid] | 501 | 8.5 | 8.5
7 | CC(C)(C)NS(=O)(=O)c1ccc(-c2c(Cl)c(C(=O)N[C@H]3C[C@H](C(=O)O)C3)nn2CC2CCCCC2)cc1C(F)(F)F [Example 108, trans-3-(5-(4-(N-(tert-Butyl)sulfamoyl)-3-(trifluoromethyl)phenyl)-4-chloro-1-(cyclohexylmethyl)-1H-pyrazole-3-carboxamido)cyclobutanecarboxylic acid] | 501 | 6.4 | 6.4
8 | CC(C)(C)c1cc(-c2cc(C(=O)NC3CCOCC3)nn2CC2CCCCC2)cc(C2(C)CC2)c1 [100/1] | 79.4 | 7.3 | 7.4
9 | Cn1c(C(=O)NCC(C)(C)O)cc(-c2ccc(S(=O)(=O)NC(C)(C)C)c3ccccc23)c1CC1CCCCC1 [8/7] | 501 | 7.8 | 7.9
10 | CC(C)(C)NS(=O)(=O)c1ccc(-c2cc(C(=O)N[C@H]3C[C@H](C(=O)O)C3)nn2CC2CCCCC2)cc1C(C)(C)C [100/3] | 794 | 7.0 | 7.1
11 | CC(C)(C)NS(=O)(=O)c1ccc(-n2nc(C(=O)N[C@H]3C[C@H](C(=O)O)C3)nc2CC2CCCCC2)cc1C(C)(C)C [Example 318, trans-3-(1-(3-(tert-Butyl)-4-(N-(tert-butyl)sulfamoyl)phenyl)-5-(cyclohexylmethyl)-1H-1,2,4-triazole-3-carboxamido)cyclobutanecarboxylic acid] | 2000 | < 4.7 | < 4.7
12 | Cn1c(C(=O)N[C@H]2C[C@H](C(=O)O)C2)cc(-c2ccc(S(=O)(=O)NC(C)(C)C)c3ccccc23)c1CC1CCCCC1 [8/4] | 1000 | 7.7 | 
13 | CC(C)(C)c1cc(-c2nc(C(N)=O)nn2CC2CCCCC2)cc(C(C)(C)C)c1 [308/1] | 2510 | 6.0 | 6.0
14 | CC(C)(C)c1cc(-n2nc(C(=O)NCc3ccn[nH]3)c(Cl)c2CC2CCCCC2)cc(C(C)(C)C)c1 [103/8] | 794 | < 4.7 | < 4.7
15 | COC(c1c(C)c(C(=O)N[C@H]2C[C@H](C(=O)O)C2)cn1-c1cc(C(C)(C)C)cc(C2(C)CC2)c1)C1CCCCC1 (some centres unmarked) [Example 14/1] | 1580 | 6.6 | 6.6
16 | Cn1c(C(=O)NC2CCS(=O)(=O)CC2)cc(-c2ccc(S(=O)(=O)NC(C)(C)C)c3ccccc23)c1CC1CCCCC1 [8/6] | 501 | 7.8 | 7.9
17 | CC(C)(C)c1cc(-c2nc(S(N)(=O)=O)nn2CC2CCCCC2)cc(C(C)(C)C)c1 [Example 309, 1-(Cyclohexylmethyl)-5-(3,5-di-tert-butylphenyl)-1H-1,2,4-triazole-3-sulfonamide] | 3160 | < 4.7 | < 4.7
18 | CC(C)(C)NS(=O)(=O)c1ccc(-c2cc(C(=O)N[C@H]3C[C@H](C(=O)O)C3)nn2CC2CCCCC2)cc1C(F)(F)F [100/6] | 316 | 6.3 | 6.3
19 | Cn1c(C(=O)NC23CCC(C(=O)O)(CC2)C3)cc(-c2cc(C(C)(C)C)cc(C3(C)CC3)c2)c1CC1CCCCC1 [8/12] | 1000 | 7.7 | 7.8
20 | CC(=O)c1cc(-c2cc(C(C)(C)C)cc(C(C)(C)C)c2)n(CC2CCCCC2)c1C [Example 321, 1-(1-(Cyclohexylmethyl)-5-(3,5-di-tert-butylphenyl)-2-methyl-1H-pyrrol-3-yl)ethanone] | 794 | 5.8 | 6.0
21 | CC(C)(C)c1cc(-c2nc(C(N)=O)nn2CC2CCCCC2)cc(C(C)(C)C)c1O [Example 306, 1-(Cyclohexylmethyl)-5-(3,5-di-tert-butyl-4-hydroxyphenyl)-1H-1,2,4-triazole-3-carboxamide] | 794 | 5.9 | 6.0
